Reference: patent publication US7803801B2, “Aminopyridine compounds having Syk inhibitory activity” (Japan Tobacco, Inc., priority 2005, dated 2010)
Where a name gives a salt, the structure may show the parent alone. Read-outs that look alike come from different tables or passages of the source.

Columns and labels:
[1] = biological target: GST-Syk Full Protein (human) (Homo sapiens, UniProt P43405); assay: Syk kinase inhibition test (HTRF method); type: biochemical
In short: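 Human GST-Syk full-length (6.4 nM) phosphorylated biotin-EDPDYEWPSA-NH2 (250 nM) with 100 μM ATP in HEPES pH 7.0/MgCl2 buffer, 2% DMSO, 30 min at room temperature. EDTA stop, then HTRF detection (streptavidin-XL665, Eu anti-phosphotyrosine) after 1 h; 665/620 ratio read.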

[2] = test system: cultured human mast cells; assay: Degranulation inhibition test using cultured human mast cells (IgE cross-linking, β-Hexosaminidase release); type: cell-based; settings: Mast cell, cultured human mast cells, read-out: human degranulation ave. IC50
In short: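 CD34+ cord-blood cells cultured ≥8 weeks with SCF/IL-6/IL-3; FcεRI primed 5 days with rhIL-4 (1 ng/mL) and hIgE (0.5 μg/mL). Compound (0.1% DMSO) preincubated 10 min at 37 °C, then anti-IgE (final 10 μg/mL) 30 min; released β-hexosaminidase read at 405 nm versus total lysate, IC50 (M).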

[3] = Tables 1-x, compounds A, read-out: sykHTRF ave IC50
[4] = Tables 2-x, thiophene compounds B, read-out: sykHTRK ave IC50
[5] = Tables 2-x, thiophene compounds B
[6] = HTRF, 100 μM ATP, 30 min room temperature, average, read-out: sykHTRF ave IC50
[7] = anti-hIgE stimulation, β-Hexosaminidase index, average

| SMILES | IC50 [1, 3] | IC50 ([2]; Tables 1-x, compounds A) | IC50 [1, 6] | IC50 [2, 7] | further results |
| --- | --- | --- | --- | --- | --- |
| COc1ccnc(Nc2cccc(-c3cnc(N4CCN(C(C)=O)CC4)s3)n2)c1 [Compound A-442, 1-(4-{5-[6-(4-methoxypyridin-2-ylamino)pyridin-2-yl]thiazol-2-yl}piperazin-1-yl)ethanone] | < 100 nM | 100 to 1000 nM | – | – | – |
| Cc1ccnc(Nc2cccc(-c3sc([N+](=O)[O-])cc3C)n2)c1 [Compound B-21] | – | – | – | – | IC50 [1, 4]: > 1000 nM; IC50 [2, 5]: > 1000 nM |
| Cc1ccnc(Nc2cccc(-c3cnc([C@@H](O)C(C)C)s3)n2)c1 [Compound A-82, (S)-2-methyl-1-{5-[6-(4-methylpyridin-2-ylamino)pyridin-2-yl]thiazol-2-yl}propan-1-ol] | – | – | < 100 nM | 100 to 1000 nM | – |
| Cc1ccnc(Nc2cccc(-c3cnc(N(CC(N)=O)[C@H]4CC[C@H](C(=O)O)CC4)s3)n2)c1 [Compound A-600] | 100 to 1000 nM | > 1000 nM | – | – | – |
| Cc1ccnc(Nc2cccc(-c3cnc(CN4CCOCC4)s3)n2)c1 [Compound A-193] | – | – | 100 to 1000 nM | 100 to 1000 nM | – |
| Cc1ccnc(Nc2cccc(-c3cnc([C@@H]4COC(=O)N4C)s3)n2)c1 [Compound A-11] | – | – | 100 to 1000 nM | 100 to 1000 nM | – |
| Cc1ccnc(Nc2cccc(-c3cnc(N4CCc5c(cccc5C(=O)O)C4)s3)n2)c1 [Compound A-582, 2-{5-[6-(4-methylpyridin-2-ylamino)pyridin-2-yl]thiazol-2-yl}-1,2,3,4-tetrahydroisoquinoline-5-carboxylic acid] | < 100 nM | > 1000 nM | – | – | – |
| CC(=O)N[C@@H](C)c1ncc(-c2cccc(Nc3cc(C4(C)OCCO4)ccn3)n2)s1 [Compound A-199] | – | – | 100 to 1000 nM | 100 to 1000 nM | – |
| CC(=O)c1ccc(-c2cccc(Nc3cc(OC(C)C)ncn3)n2)s1 [Compound B-30, 1-{5-[6-(6-isopropoxypyrimidin-4-ylamino)pyridin-2-yl]thiophen-2-yl}ethanone] | – | – | – | – | IC50 [1, 4]: < 100 nM; IC50 [2, 5]: > 1000 nM |
| Cc1ccnc(Nc2cccc(-c3cnc(N4CCC(c5noc(=O)[nH]5)CC4)s3)n2)c1 [Compound A-450, 3-(1-{5-[6-(4-methylpyridin-2-ylamino)pyridin-2-yl]thiazol-2-yl}piperidin-4-yl)-4H-[1,2,4]oxadiazole-5-one] | < 100 nM | > 1000 nM | – | – | – |
| CNCc1ccc(-c2cccc(Nc3cc(C)ccn3)n2)s1 [Compound B-25] | – | – | – | – | IC50 [1, 4]: 100 to 1000 nM; IC50 [2, 5]: > 1000 nM |
| Cc1ccnc(Nc2cccc(-c3cnc(COCC(=O)N4C[C@H](NCc5ccccc5)[C@@H](O)C4)s3)n2)c1 [Compound A-399] | > 1000 nM | > 1000 nM | – | – | – |
| Cc1ccnc(Nc2cccc(-c3cnc([C@H]4CC[C@H](C(=O)NCCO)CC4)s3)n2)c1 [Compound A-267, N-(2-hydroxyethyl)-trans-4-{5-[6-(4-methylpyridin-2-ylamino)pyridin-2-yl]thiazol-2-yl}cyclohexanecarboxamide] | – | – | < 100 nM | 100 to 1000 nM | – |
| COc1ccnc(Nc2cccc(-c3cnc([C@H](C)O)s3)n2)c1 [Compound A-320, (S)-1-{5-[6-(4-methoxypyridin-2-ylamino)pyridin-2-yl]thiazol-2-yl}ethanol] | – | – | < 100 nM | < 100 nM | – |
| Cc1ccnc(Nc2cccc(-c3cnc(C(C)(C)NC(=O)OC(C)(C)C)s3)n2)c1 [Compound A-112] | – | – | > 1000 nM | > 1000 nM | – |
| Cc1ccnc(Nc2cccc(-c3cnc(N(C)[C@H]4CC[C@H](CC(=O)O)CC4)s3)n2)c1 [Compound A-610, [trans-4-(N-methyl-N-{5-[6-(4-methylpyridin-2-ylamino)pyridin-2-yl]thiazol-2-yl}amino)cyclohexyl]acetic acid] | < 100 nM | 100 to 1000 nM | – | – | – |

| SMILES | IC50 [1, 3] | IC50 ([2]; Tables 1-x, compounds A) | IC50 [1, 6] | IC50 [2, 7] | further results |
| --- | --- | --- | --- | --- | --- |
| Cc1ccnc(Nc2cccc(-c3cnc(COCC(N)=O)s3)n2)c1 [Compound A-354] | – | – | 100 to 1000 nM | 100 to 1000 nM | – |
| Cc1ccnc(Nc2cccc(-c3cnc(N(C)Cc4ccc(CC(=O)O)cc4)s3)n2)c1 [Compound A-587, {4-[(N-methyl-N-{5-[6-(4-methylpyridin-2-ylamino)pyridin-2-yl]thiazol-2-yl}amino)methyl]phenyl}acetic acid dihydrochloride] | < 100 nM | 100 to 1000 nM | – | – | – |
| Cc1ccnc(Nc2cccc(-c3cnc([C@H](C)NC(=O)c4ccc(O)cc4)s3)n2)c1 [Compound A-347] | – | – | 100 to 1000 nM | 100 to 1000 nM | – |
| Cc1ccnc(Nc2cccc(-c3cnc([C@H]4CC[C@H](C(=O)O)CC4)s3)n2)c1 [Compound A-7, trans-4-{5-[6-(4-methylpyridin-2-ylamino)pyridin-2-yl]thiazol-2-yl}cyclohexanecarboxylic acid] | – | – | < 100 nM | > 1000 nM | – |
| Cc1ccnc(Nc2cccc(-c3cnc(N(C)Cc4ccc(C(=O)O)cc4)s3)n2)c1 [Compound A-574, 4-[(N-methyl-N-{5-[6-(4-methylpyridin-2-ylamino)pyridin-2-yl]thiazol-2-yl}amino)methyl]benzoic acid dihydrochloride] | < 100 nM | 100 to 1000 nM | – | – | – |
| C[C@H](O)c1ncc(-c2cccc(Nc3cc(Cl)ccn3)n2)s1 [Compound A-322, (S)-1-{5-[6-(4-chloropyridin-2-ylamino)pyridin-2-yl]thiazol-2-yl}ethanol] | – | – | < 100 nM | < 100 nM | – |
| Cc1ccnc(Nc2cccc(-c3cnc(CN4C(=O)CN(Cc5ccccc5)CC4=O)s3)n2)c1 [Compound A-391] | > 1000 nM | > 1000 nM | – | – | – |
| Cc1ccnc(Nc2cccc(-c3cnc(CCc4ccc(C(=O)NCCO)cc4)s3)n2)c1 [Compound A-162, N-(2-hydroxyethyl)-4-(2-{5-[6-(4-methylpyridin-2-ylamino)pyridin-2-yl]thiazol-2-yl}ethyl)benzamide] | – | – | < 100 nM | 100 to 1000 nM | – |
| Cc1ccnc(Nc2cccc(-c3cnc(CN4CCNCC4)s3)n2)c1 [Compound A-194, N-(4-methylpyridin-2-yl)-N-{6-[2-(piperazin-1-ylmethyl)thiazol-5-yl]pyridin-2-yl}amine] | – | – | < 100 nM | 100 to 1000 nM | – |
| Cc1ccnc(Nc2cccc(-c3cnc(CCCCC(N)=O)s3)n2)c1 [Compound A-71, 5-{5-[6-(4-methylpyridin-2-ylamino)pyridin-2-yl]thiazol-2-yl}pentanamide] | – | – | < 100 nM | 100 to 1000 nM | – |
| CC(=O)c1ncc(-c2cccc(Nc3cc(C)ccn3)n2)s1 [Compound A-27, 1-{5-[6-(4-methylpyridin-2-ylamino)pyridin-2-yl]thiazol-2-yl}ethanone] | – | – | < 100 nM | 100 to 1000 nM | – |
| CC(=O)N1CCN(C(=O)[C@H]2CC[C@H](c3ncc(-c4cccc(Nc5cc(C)ccn5)n4)s3)CC2)CC1 [Compound A-289] | – | – | 100 to 1000 nM | > 1000 nM | – |
| Cc1ccnc(Nc2cccc(-c3cnc(CN4CCC(NC(=O)CO)CC4)s3)n2)c1 [Compound A-247] | – | – | 100 to 1000 nM | 100 to 1000 nM | – |
| Cc1ccnc(Nc2cccc(-c3cnc(N(C)CC(=O)N(C)CC(=O)O)s3)n2)c1 [Compound A-580, {N-methyl-N-[2-(N′-methyl-N′-{5-[6-(4-methylpyridin-2-ylamino)pyridin-2-yl]thiazol-2-yl}amino)acetyl]amino}acetic acid dihydrochloride] | < 100 nM | > 1000 nM | – | – | – |
| Cc1ccnc(Nc2cccc(-c3cnc([C@H]4CC[C@H](C(=O)N5CCC(N)C5)CC4)s3)n2)c1 (stereo partly drawn) [Compound A-311, (3-aminopyrrolidin-1-yl)-(trans-4-{5-[6-(4-methylpyridin-2-ylamino)pyridin-2-yl]thiazol-2-yl}cyclohexyl)methanone trihydrochloride] | – | – | < 100 nM | 100 to 1000 nM | – |
